Where two headings read alike, the source gives them in different places.
Key:
Assay in all cases: MIC, broth microdilution (CLSI), substance alone or ATB combined with compound at 4 or 8 μg/mL
ECO 190317 = assay type: cell-based, E. coli; settings: ECO 190317; for MIC: Escherichia coli
Summary of the method: (§1)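 Potentiation format: antibiotic dilution series run with test compound held at 4 or 8 μg/mL, alongside compound-alone MICs. Broth microdilution per CLSI in ca-MHB, 16-20 h at 35° C.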

ECO UFR39 = assay type: cell-based, E. coli; settings: ECO UFR39
Summary of the method: as §1

KPN 6299 = assay type: cell-based, K. pneumoniae; settings: for MIC: Klebsiella pneumoniae
Summary of the method: as §1

KPN BAA-1898 = assay type: cell-based, K. pneumoniae; settings: KPN BAA-1898; for MIC: Klebsiella pneumoniae, BAA1898
Summary of the method: as §1

KPN UFR42 = assay type: cell-based, K. pneumoniae; settings: KPN UFR42
Summary of the method: as §1

ECL P99 = assay type: cell-based, E. cloacae; settings: ECL P99
Summary of the method: as §1

[1] = antibiotic alone, read-out: MIC ATB alone

Structure (SMILES): COCC1=C(C(=O)O)N2C(=O)[C@@H](NC(=O)/C(=N\OC)c3csc(N)n3)[C@H]2SC1 [POD, Cefpodoxime, reference compound]
- MIC ATB combined with Example 1 @8 μg/ml (ECO 190317; with Example 1 at 8 μg/ml): <0.031 µg/mL
- MIC ATB combined with Example 7 @8 μgml (ECO 190317; with Example 7 at 8 μg/ml): <0.031 µg/mL
- MIC ATB combined with Example 9 @4 μg/ml (ECO 190317; with Example 9 at 4 μg/ml): <0.031 µg/mL
- MIC ATB combined with Example 11 @8 μg/ml (ECO 190317; with Example 11 at 8 μg/ml): <0.031 µg/mL
- MIC ATB combined with Example 12 @8 μg/ml (ECO 190317; with Example 12 at 8 μg/ml): <0.031 µg/mL
- MIC ATB combined with Example 13 @8 μg/ml (ECO 190317; with Example 13 at 8 μg/ml): <0.031 µg/mL
- MIC ATB combined with Example 14 @8 μg/ml (ECO 190317; with Example 14 at 8 μg/ml): <0.031 µg/mL
- MIC ATB combined with Example 15 @4 μgml (ECO 190317; with Example 15 at 4 μg/ml): <0.031 µg/mL
- MIC ATB combined with Example 16 @4 μg/ml (ECO 190317; with Example 16 at 4 μg/ml): <0.031 µg/mL
- MIC (ECO 190317; [1]): > 512 µg/mL
- MIC (ECO 190317; substance alone, read-out: MIC): > 512 µg/mL
- MIC ATB combined with Example 1 @8 μg/ml (ECO UFR39; with Example 1 at 8 μg/ml): <0.031 µg/mL
- MIC ATB combined with Example 7 @8 μgml (ECO UFR39; with Example 7 at 8 μg/ml): <0.031 µg/mL
- MIC ATB combined with Example 9 @4 μg/ml (ECO UFR39; with Example 9 at 4 μg/ml): <0.031 µg/mL
- MIC ATB combined with Example 11 @8 μg/ml (ECO UFR39; with Example 11 at 8 μg/ml): <0.031 µg/mL
- MIC ATB combined with Example 12 @8 μg/ml (ECO UFR39; with Example 12 at 8 μg/ml): <0.031 µg/mL
- MIC ATB combined with Example 13 @8 μg/ml (ECO UFR39; with Example 13 at 8 μg/ml): <0.031 µg/mL
- MIC ATB combined with Example 14 @8 μg/ml (ECO UFR39; with Example 14 at 8 μg/ml): <0.031 µg/mL
- MIC ATB combined with Example 15 @4 μgml (ECO UFR39; with Example 15 at 4 μg/ml): <0.031 µg/mL
- MIC ATB combined with Example 16 @4 μg/ml (ECO UFR39; with Example 16 at 4 μg/ml): <0.031 µg/mL
- MIC (ECO UFR39; Escherichia coli, antibiotic alone, read-out: MIC ATB alone): > 256 µg/mL
- MIC (KPN 6299; [1]): 64 µg/mL
- MIC (KPN 6299; substance alone, read-out: MIC): 64 µg/mL
- MIC ATB combined with Example 1 @8 μg/ml (KPN 6299; with Example 1 at 8 μg/ml): 0.25 µg/mL
- MIC ATB combined with Example 7 @8 μgml (KPN 6299; with Example 7 at 8 μg/ml): 0.25 µg/mL
- MIC ATB combined with Example 9 @4 μg/ml (KPN 6299; with Example 9 at 4 μg/ml): <0.031 µg/mL
- MIC ATB combined with Example 11 @8 μg/ml (KPN 6299; with Example 11 at 8 μg/ml): <0.031 µg/mL
- MIC ATB combined with Example 12 @8 μg/ml (KPN 6299; with Example 12 at 8 μg/ml): <0.031 µg/mL
- MIC ATB combined with Example 13 @8 μg/ml (KPN 6299; with Example 13 at 8 μg/ml): 0.125 µg/mL
- MIC ATB combined with Example 14 @8 μg/ml (KPN 6299; with Example 14 at 8 μg/ml): <0.031 µg/mL
- MIC ATB combined with Example 15 @4 μgml (KPN 6299; with Example 15 at 4 μg/ml): <0.031 µg/mL
- MIC ATB combined with Example 16 @4 μg/ml (KPN 6299; with Example 16 at 4 μg/ml): <0.031 µg/mL
- MIC ATB combined with Example 1 @8 μg/ml (KPN BAA-1898; with Example 1 at 8 μg/ml): 1 µg/mL
- MIC ATB combined with Example 7 @8 μgml (KPN BAA-1898; with Example 7 at 8 μg/ml): 2 µg/mL
- MIC ATB combined with Example 9 @4 μg/ml (KPN BAA-1898; with Example 9 at 4 μg/ml): <0.031 µg/mL
- MIC ATB combined with Example 11 @8 μg/ml (KPN BAA-1898; with Example 11 at 8 μg/ml): <0.031 µg/mL
- MIC ATB combined with Example 12 @8 μg/ml (KPN BAA-1898; with Example 12 at 8 μg/ml): <0.031 µg/mL
- MIC ATB combined with Example 13 @8 μg/ml (KPN BAA-1898; with Example 13 at 8 μg/ml): 1 µg/mL
- MIC ATB combined with Example 14 @8 μg/ml (KPN BAA-1898; with Example 14 at 8 μg/ml): <0.031 µg/mL
- MIC ATB combined with Example 15 @4 μgml (KPN BAA-1898; with Example 15 at 4 μg/ml): <0.031 µg/mL
- MIC ATB combined with Example 16 @4 μg/ml (KPN BAA-1898; with Example 16 at 4 μg/ml): <0.031 µg/mL
- MIC (KPN BAA-1898; [1]): > 512 µg/mL
- MIC (KPN BAA-1898; substance alone, read-out: MIC): > 512 µg/mL
- MIC ATB combined with Example 1 @8 μg/ml (KPN UFR42; with Example 1 at 8 μg/ml): >32 µg/mL
- MIC ATB combined with Example 7 @8 μgml (KPN UFR42; with Example 7 at 8 μg/ml): >32 µg/mL
- MIC ATB combined with Example 9 @4 μg/ml (KPN UFR42; with Example 9 at 4 μg/ml): >32 µg/mL
- MIC ATB combined with Example 11 @8 μg/ml (KPN UFR42; with Example 11 at 8 μg/ml): <0.031 µg/mL
- MIC ATB combined with Example 12 @8 μg/ml (KPN UFR42; with Example 12 at 8 μg/ml): <0.031 µg/mL
- MIC ATB combined with Example 13 @8 μg/ml (KPN UFR42; with Example 13 at 8 μg/ml): >32 µg/mL
- MIC ATB combined with Example 14 @8 μg/ml (KPN UFR42; with Example 14 at 8 μg/ml): <0.031 µg/mL
- MIC ATB combined with Example 15 @4 μgml (KPN UFR42; with Example 15 at 4 μg/ml): <0.031 µg/mL
- MIC ATB combined with Example 16 @4 μg/ml (KPN UFR42; with Example 16 at 4 μg/ml): <0.031 µg/mL
- MIC (KPN UFR42; Klebsiella pneumoniae, antibiotic alone, read-out: MIC ATB alone): > 256 µg/mL
- MIC ATB combined with Example 1 @8 μg/ml (ECL P99; with Example 1 at 8 μg/ml): <=0.031 μg/mL
- MIC ATB combined with Example 7 @8 μgml (ECL P99; with Example 7 at 8 μg/ml): 16 µg/mL
- MIC ATB combined with Example 9 @4 μg/ml (ECL P99; with Example 9 at 4 μg/ml): <0.031 µg/mL
